The target of data set [1] is CDK4/D3 (Homo sapiens, UniProt P11802). Nature of the data set: In vitro enzyme-inhibiting activity, Caliper Mobility Shift method. Conditions: read-out: CDK enzyme-inhibiting activity IC50 CDK4/D3. The data set is classed as biochemical.
Description: Measurement of activity for inhibiting CDK4/6 kinase by Caliper Mobility Shift method.
1) Preparation of 1-Fold Buffer for CDK4 Kinase 800 μL stock solution containing 1000 mM HEPES (pH 7.5), and 40 μL stock solution containing 10% Triton X-100, were added to 39160 μL ultra pure water, and the resultant mixture was mixed homogeneously.
25 mL stock solution containing 4% Coating Reagent #3 (provided with the 12-sipper chip used in Caliper device), 50 mL stock solution containing 1000 mM HEPES (pH 7.5), 50 mL stock solution containing 0.5 M EDTA, and 0.25 mL stock solution containing 30% Brij-35, were added to 374.75 mL ultra pure water, and the resultant mixture was mixed homogeneously.
7 μL CDK4/D3 enzyme solution, and 9 μL stock solution containing 1M DTT were added to 1784 μL 1-fold CDK4 kinase buffer, and the resultant mixture was mixed homogeneously.
10 μL stock solution containing 100 mM ATP, 45 μL stock solution containing 1M MgCl2, and 45 μL FAM-tagged polypeptide 8, were added to 1700 μL 1-fold CDK4 kinase buffer, and the resultant mixture was mixed homogeneously.
DMSO solution containing 10 mM test compound was diluted with DMSO to a solution containing 50 μM test compound (which was used as a stock solution).
1) 5 μL 5-fold test compound solution and 10 μL 2.5-fold kinase solution were added to the corresponding wells in a 384-well plate, and incubated at room temperature for 10 min.
2) To the corresponding wells, 10 μL 2.5-fold polypeptide solution was added to start the enzymatic reaction, and incubation was performed at 28° C. for 5 h.
To the corresponding wells, 25 μL stop solution was added to stop the reaction.
The data was read by Caliper device, the inhibition rate was calculated by the following formula, and curve fitting was carried out by GraphPad5.0 software to get IC50 value. Inhibition rate=(maximal value−sample value)/(maximal value−minimal value)×100, wherein, maximal value: positive control without addition of test compound; minimal value: negative control without addition of enzyme.
Data set [2] in a line: In vivo assay for blood brain barrier permeability in rat. Conditions: male, SD, 30 mg/kg, PO. The protocol: Test animal: male SD rat, 3 rats/test compound/time point, weight: 250-300 g/rat
After separate PO administration of control agent and compound 1, blood was collected by cardiac puncture at 2, 4, 24 and 48 h; about 8 ml whole blood was collected, and placed in a centrifuge tube containing K2EDTA anticoagulant agent; cerebrospinal fluid and brain tissue were also collected at the same time, 3 rats at each time point. The collected whole blood was centrifuged at 3000 r/min at 4° C. in a high speed centrifuge for 10 min to separate the plasma; and the plasma was stored in a refrigerator at −80° C. After sample collection, the concentrations of control agent and compound 1 in plasma, brain tissue and cerebrospinal fluid were determined, respectively.
The plasma samples of control agent and compound 1 were analyzed by precipitation of protein: the test samples were taken from the refrigerator (−80° C.), thawed at room temperature, and then vortexed for 3 min; to 30 μL plasma, 200 μL internal standard (acetonitrile solution containing 25 ng/mL PD0332991) was added; the resultant mixture was vortexed for 10 min at 1500 r/min, and centrifuged at 4000 r/min for 20 min; to 100 μL supernatant, 100 μL water was added; the resultant mixture was mixed homogeneously under vortexing and analyzed by LC-MS/MS.
The brain tissue and cerebrospinal fluid samples for control agent and compound 1 were analyzed by precipitation of protein: the test samples were taken from the refrigerator (−80° C.), thawed at room temperature, and then vortexed for 3 min; to 20 μL homogenated brain tissue sample, 200 μL internal standard (a solution of methanol and water at 1:1 containing 40 ng/mL dextromethorphan and 50 ng/mL dextrorphan) was added; the resultant mixture was vortexed for 3 min at 1500 r/min, and centrifuged at 4° C., 4000 g for 5 min; to 100 μL supernatant, 50 μL 0.1% formic acid-water was added; the resultant mixture was mixed homogeneously under vortexing and analyzed by LC-MS/MS. Cerebrospinal fluid sample was treated by the same way as the homogenated brain tissue sample.

Data set [3] in a line: PK in U-87MG subcutaneous tumor model of BALB/c nude mouse. Format: in vivo. To be noted: female, plasma, U87MG tumor-bearing nude mouse, PO QD 3 weeks, after last administration (Day 22). The protocol: Test animal: female nude mouse (BALB/c), 10 mice/dose group/test compound, weight: 18-22 g/mouse.
U87MG cells from ATCC were cultured in MEM medium containing 10% fetal bovine serum; the cells were digested with trypsin containing EDTA by conventional methods; the cells were passaged for two generations every week, and were continuously cultured in a 37° C., 5% CO2 incubator.
Tumor cells in exponential growth phase were collected; U87MG cells were adjusted with PBS and matrigel at a ratio of 1:1 to a concentration of 5×10^7/mL; 0.1 mL cell suspension was seeded subcutaneously to right back of each mouse by injection with a 1 mL syringe. Tumor volumes were observed and measured, and the average tumor volume of U87MG reached about 200 mm^3 8 days after seeding; the tumor-bearing mice were grouped and were treated by oral administration of test compounds, at a dose of 0.1 mL/10 g body weight.
Blood collection: blood was collected from intraocular canthus. After the last administration (Day 22) of control agent and compound 1, blood/tumor was collected at the same time points, wherein as to 10 nude mice for each dose group, one was for standby, and the other 9 mice were divided into three groups, i.e., A, B and C groups.
A group (No. 1-3): blood was collected before administration, and at 1 h and 2 h after administration, and the mouse was sacrificed after blood collection at 2 h;
B group (No. 4-6): blood was collected at 15 min, 4 h and 6 h after administration, and the mouse was sacrificed after blood collection at 6 h;
C group (No. 7-9): blood was collected at 30 min, 10 h and 24 h after administration, and the mouse was sacrificed after blood collection at 24 h;
300 μL whole blood was collected at each time point, added to an anticoagulation tube containing K2EDTA, and centrifuged at 8000 r/min in a high speed centrifuge for 6 min to separate the plasma; the plasma was stored in a refrigerator at −80° C.
The plasma samples of control agent and compound 1 were analyzed by precipitation of protein: 30 μL plasma was added to a 96-deep well plate, and 200 μL internal standard (acetonitrile solution containing 25 ng/mL PD0332991) was added; the resultant mixture was vortexed for 3 min at 1500 r/min, and centrifuged for 20 min at 4000 r/min; to 100 μL supernatant, 100 μL water was added; the resultant mixture was mixed homogeneously under vortexing and analyzed by LC-MS/MS.

Chain of CDK4/D3 (P11802 whole entry): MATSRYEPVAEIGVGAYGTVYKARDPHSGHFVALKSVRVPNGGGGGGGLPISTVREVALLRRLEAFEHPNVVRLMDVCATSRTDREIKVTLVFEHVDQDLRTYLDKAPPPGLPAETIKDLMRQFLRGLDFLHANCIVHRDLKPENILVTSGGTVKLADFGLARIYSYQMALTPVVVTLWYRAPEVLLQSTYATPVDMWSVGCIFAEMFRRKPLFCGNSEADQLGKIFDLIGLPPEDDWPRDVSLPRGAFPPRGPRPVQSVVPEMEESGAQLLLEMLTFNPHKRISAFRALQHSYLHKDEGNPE
Chain of CDK4/D3 (P30281 whole entry partner): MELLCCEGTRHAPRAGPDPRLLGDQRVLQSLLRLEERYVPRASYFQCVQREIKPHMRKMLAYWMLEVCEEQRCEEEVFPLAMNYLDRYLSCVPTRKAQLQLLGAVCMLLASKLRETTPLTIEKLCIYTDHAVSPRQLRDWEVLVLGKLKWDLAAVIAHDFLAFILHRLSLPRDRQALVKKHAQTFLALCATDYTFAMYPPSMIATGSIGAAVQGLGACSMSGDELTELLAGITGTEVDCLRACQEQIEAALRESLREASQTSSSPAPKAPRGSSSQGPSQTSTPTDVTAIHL

A word on the AUC(0-t): it is the area under the concentration-time curve up to a stated or last time point. Low readings indicate less exposure, high ones more exposure. Usually Cmax stands for the maximum level reached in the sampled fluid or tissue. Broadly, the Tmax is the time from dosing to the highest level. `CCN1CCN(Cc2cnc(Nc3cc(-c4cc(F)c5nc(C)n(C(C)C)c5c4)c(F)cn3)nc2)CC1` [Compound 1, 5-((4-ethylpiperazin-1-yl)methyl)-N-(5-fluoro-4-(4-fluoro-1-isopropyl-2-methyl-1H-benzo[d]imidazol-6-yl)pyridin-2-yl)pyrimidin-2-amine]: in data set [1], the IC50 came to 2.7 nM. Also, the AUC(0-t) in data set [2] (dose 30, brain tissue) stood at 12100 ng·h/mL; in data set [2] (dose 30, cerebrospinal fluid), 1290 ng·h/mL; in data set [2] (dose 30, plasma), 49200 ng·h/mL; in data set [3] (50 mg/kg), 23500 ng·h/mL; in data set [3] (100 mg/kg) it was 34800 ng·h/mL; in data set [3] (200 mg/kg), 49700 ng·h/mL. Also, the Cmax in data set [2] (dose 30, brain tissue) came out at 535 ng/mL; in data set [2] (dose 30, cerebrospinal fluid) it was 106 ng/mL; in data set [2] (dose 30, plasma), 2610 ng/mL; in data set [3] (50 mg/kg), 1770 ng/mL; in data set [3] (100 mg/kg), 2180 ng/mL; in data set [3] (200 mg/kg) it was 2510 ng/mL. Moreover, the Tmax in data set [2] (dose 30, brain tissue) stood at 4 h; in data set [2] (dose 30, cerebrospinal fluid), 4 h; in data set [2] (dose 30, plasma), 4 h; in data set [3] (50 mg/kg) it was 2 h; in data set [3] (100 mg/kg), 1 h; in data set [3] (200 mg/kg), 6 h.

As to `CCN1CCN(Cc2ccc(Nc3ncc(F)c(-c4cc(F)c5nc(C)n(C(C)C)c5c4)n3)nc2)CC1` [LY2835219, reference compound], the AUC(0-t) in data set [2] (dose 30, brain tissue) came out at 18100 ng·h/mL; in data set [2] (dose 30, cerebrospinal fluid), 451 ng·h/mL; in data set [2] (dose 30, plasma), 40500 ng·h/mL; in data set [3] (50 mg/kg) it was 19400 ng·h/mL; in data set [3] (100 mg/kg), 27900 ng·h/mL. For the same compound, the Cmax in data set [2] (dose 30, brain tissue) was determined as 673 ng/mL; in data set [2] (dose 30, cerebrospinal fluid), 11.8 ng/mL; in data set [2] (dose 30, plasma), 1500 ng/mL; in data set [3] (50 mg/kg) it was 1160 ng/mL; in data set [3] (100 mg/kg) it was 1530 ng/mL. The Tmax amounted to 4 h in data set [2] (dose 30, brain tissue); 4 h in data set [2] (dose 30, cerebrospinal fluid); 4 h in data set [2] (dose 30, plasma); 1 h in data set [3] (50 mg/kg); 4 h in data set [3] (100 mg/kg).

The record behind these values is patent publication US9949976B2, “Kinase inhibitor and use thereof” (Sihuan Pharmaceutical Holdings Group Ltd., priority 2013, dated 2018).
